The supplement of paper PMC10307832

How the values were obtained:
Assay in all cases: relative viability (nuclei count vs DMSO), 5 days (fraction); higher = more cells survive
Motesanib + Palbociclib = compound: CC1(C)CNc2cc(NC(=O)c3cccnc3NCc3ccncc3)ccc21 [Motesanib] + CC(=O)c1c(C)c2cnc(Nc3ccc(N4CCNCC4)cn3)nc2n(C2CCCC2)c1=O [Palbociclib] (partner 0.5 µM)
Outline: (§1)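 Relative viability divides the nuclei count in treated wells by that in vehicle wells. Lung cancer cell lines were seeded in 1536-well plates, dosed by pin tool the next day, and fixed and stained after 5 days in one step with final 0.05% Triton X-100, 1% formaldehyde and 1 ug/ml Hoechst. Dosing was a single drug or a fixed anchor-drug dose plus five library-drug doses (not always all listed) in √10 steps, and values are medians of duplicate plates imaged at 4×.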

[1] = compound: C[C@@]1(C(=O)Nc2ccc(F)nc2)CCCN1c1nc(Nc2cc(C3CC3)n[nH]2)c2cccn2n1 + Nc1ncn([C@H]2C[C@H](O)[C@@H](CO)O2)c(=O)n1 [Decitabine] (partner 2 µM)
Outline: as §1

[2] = compound: C[C@@]1(C(=O)Nc2ccc(F)nc2)CCCN1c1nc(Nc2cc(C3CC3)n[nH]2)c2cccn2n1 + N=C(N)NC(=N)NCCc1ccccc1 [Phenformin] (partner 250 µM)
Outline: as §1

[3] = compound: C[C@@]1(C(=O)Nc2ccc(F)nc2)CCCN1c1nc(Nc2cc(C3CC3)n[nH]2)c2cccn2n1 + O=C(CCCCCCC(=O)Nc1ccccc1)NO [Vorinostat] (partner 1 µM)
Outline: as §1

UMC-11 gave a relative viability (Motesanib + Palbociclib; first compound 0.01 µM) of 0.317, a relative viability (Motesanib + Palbociclib; first compound 0.03162 µM) of 0.302 and a relative viability (Motesanib + Palbociclib; first compound 0.1 µM) of 0.314. For the same cell line, the relative viability (Motesanib + Palbociclib; first compound 0.3162 µM) was 0.394, the relative viability (Motesanib + Palbociclib; first compound 1 µM) was 0.347 and the relative viability ([1]; first compound 0.04 µM) was 0.638. For the same cell line, the relative viability ([1]; first compound 0.1265 µM) was 0.45, the relative viability ([1]; first compound 0.4 µM) was 0.317 and the relative viability ([1]; first compound 1.265 µM) was 0.646. The relative viability ([2]; first compound 0.04 µM) was 0.341, the relative viability ([2]; first compound 0.1265 µM) was 0.339 and the relative viability ([2]; first compound 0.4 µM) was 0.347. It also gave a relative viability ([2]; first compound 1.265 µM) of 0.277, a relative viability ([3]; first compound 0.04 µM) of 0.398 and a relative viability ([3]; first compound 0.1265 µM) of 0.432. The relative viability ([3]; first compound 0.4 µM) was 0.359 and the relative viability ([3]; first compound 1.265 µM) was 0.258.
